Measured values as given in patent US10000535B2, “Template-fixed peptidomimetics” (POLYPHOR LTD., priority 2007, dated 2018).
Non-standard residues stand in square brackets, D forms with d. Residues, ends and D or L forms follow the SMILES beside them. Tic = O=C(O)[C@@H]1Cc2ccccc2CN1; Orn = NCCC[C@H](N)C(=O)O; Aze = O=C(O)[C@@H]1CCN1; Aib = CC(C)(N)C(=O)O

Columns and labels:
Assay type in all cases: cell-based
human UTR2 receptor [1] = target: T1, human UTR2 receptor (Homo sapiens, UniProt Q9UKP6); assay: Calcium mobilization assay, agonist activity at urotensin receptor; settings: mouse pre-B 300-19 cells transfected with human UTR2, read-out: EC50% (nM) ± SD, Urotensin receptor
T1 construct: expressed in transfected cells; host or cells: mouse pre-B cell line 300-19
T1 sequence (Q9UKP6 1-389): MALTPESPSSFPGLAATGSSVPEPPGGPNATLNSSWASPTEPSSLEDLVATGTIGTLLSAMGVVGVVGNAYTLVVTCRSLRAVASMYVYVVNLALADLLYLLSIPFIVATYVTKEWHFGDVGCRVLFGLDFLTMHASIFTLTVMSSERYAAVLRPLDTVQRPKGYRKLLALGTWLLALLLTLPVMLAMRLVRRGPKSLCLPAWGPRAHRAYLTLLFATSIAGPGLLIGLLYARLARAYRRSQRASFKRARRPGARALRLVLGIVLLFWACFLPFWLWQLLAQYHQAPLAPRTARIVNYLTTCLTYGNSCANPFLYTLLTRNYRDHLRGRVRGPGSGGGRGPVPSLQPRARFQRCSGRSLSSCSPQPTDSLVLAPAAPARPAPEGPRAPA
Experimental: (§1) The mouse pre-B cell line 300-19 was stably transfected with the cDNA encoding the human UTR2 receptor (GenBank Acc#NM_018949), and expression was confirmed with a positive calcium signal in response to human urotensin (Sigma Aldrich). Increases in intracellular calcium were monitored using a Flexstation 384 (Molecular Devices, Sunnyvale, Calif.). The cells were batch loaded with the Calcium 3 Assay kit (Molecular Devices) in assay buffer (Hanks Balanced salt solution, HBSS, 20 mM HEPES, pH 7.4, 0.1% BSA) for 1 h at room temperature and labeled cells were dispensed into either black 96 well or 384 well assay plates (Greiner). Calcium mobilization induced by urotensin or compounds was measured in the Flexstation 384 (excitation, […]) for 70 seconds. Agonist activity was determined by direct addition of ligand or peptides, while antagonists were identified by pre-incubation of compounds with cells prior to urotensin addition. A dose response curve (compound concentration versus % maximum response for urotensin) was determined for each active agonist and antagonist and was fitted to a four parameter logistic equation using SoftmaxPro 4.6 (Molecular Devices), from which EC50% and IC50% values were calculated.

human UTR2 receptor [2] = target: T1, human UTR2 receptor; assay: Calcium mobilization assay, antagonist activity at urotensin receptor; settings: pre-incubation before urotensin, 300-19 cells with human UTR2, read-out: IC50% (μM) ± SD, Urotensin receptor
Experimental: as §1

human CCR10 = target: T2, human CCR10 (Homo sapiens, UniProt P46092); assay: Calcium flux antagonism assay with human CCL27; settings: 300-19 cells with human CCR10, human CCL27, read-out: IC50% (μM), CCR10 receptor
T2 construct: expressed in transfected cells; host or cells: mouse pre-B cell line 300-19
T2 sequence (P46092 1-362): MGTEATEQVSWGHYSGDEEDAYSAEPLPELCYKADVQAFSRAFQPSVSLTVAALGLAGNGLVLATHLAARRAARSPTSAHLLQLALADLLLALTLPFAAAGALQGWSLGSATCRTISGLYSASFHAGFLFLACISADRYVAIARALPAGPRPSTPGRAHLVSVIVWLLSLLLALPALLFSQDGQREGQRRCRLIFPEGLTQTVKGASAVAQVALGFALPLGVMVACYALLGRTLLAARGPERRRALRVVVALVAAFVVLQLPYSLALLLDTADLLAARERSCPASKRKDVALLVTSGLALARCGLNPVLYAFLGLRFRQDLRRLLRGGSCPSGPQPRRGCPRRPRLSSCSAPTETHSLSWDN
Experimental: as §1
Peptides for CCR10 (Marchese et. al. 1994, Homey et. al.) and CXCR3 (Loetscher et. al. 1998, Marchese et. al. 1995) antagonism were assayed in a mouse pre-B cell line 300-19 stably transfected with either human CCR10 or CXCR3 (Marchese et. al. 1995). Antagonism at each receptor was measured with a calcium flux assay in these cells as described above for UTR2 assays using human CCL27 and human CXCL10 (Cole et. al.) for CCR10 and CXCR3 respectively.
Selectivity was measured using the calcium flux assay on a panel of human chemokine receptor bearing cell lines (CCR1, CCR2, CCR3, CCR4, CCR5, CCR6, CCR7, CCR8, CCR9, CCR10, CXCR1, CXCR2, CXCR2, CXCR4, CXCR6 and CXCCR1) using the same method as above

Row | SMILES | EC50 (human UTR2 receptor [1]) | also measured
1 | CC[C@H](C)[C@@H]1NC(=O)[C@@H]2CCN2C(=O)[C@H]2CCCN2C(=O)[C@H](Cc2ccc(O)cc2)NC(=O)[C@H](CCCCN)NC(=O)[C@H](Cc2c[nH]c3ccccc23)NC1=O [Example 5] (cyclo(IWKY[dP][Aze])) | 45 ± 22 nM | 
2 | COc1ccc2c3c1CNC(=O)[C@H](Cc1ccc(O)cc1)NC(=O)[C@H](CCCCN)NC(=O)[C@H](Cc1c[nH]c4ccccc14)NC(=O)[C@H](CCC(=O)O)NC(=O)Cc1c(OC)ccc(c1O3)C2(C)C [Example 13] | 274 ± 5 nM | 
3 | COc1ccc2c3c1CNC(=O)[C@H](Cc1ccc(O)cc1)NC(=O)[C@H](CCCCN)NC(=O)[C@H](Cc1c[nH]c4ccccc14)NC(=O)[C@H](CCC(N)=O)NC(=O)Cc1c(OC)ccc(c1O3)C2(C)C [Example 10] | 170 ± 40 nM | 
4 | CC[C@H](C)[C@@H]1NC(=O)[C@@H]2Cc3ccccc3CN2C(=O)[C@H]2CCCN2C(=O)[C@H]([C@@H](C)CC)NC(=O)C(C)(C)NC(=O)[C@@H](CCCNC(=N)N)NC1=O [Example 19] (cyclo(I[dR][Aib]I[dP][Tic])) |  | IC50 (human UTR2 receptor [2]): 6.2 ± 1.5 µM
5 | NCCCC[C@@H]1NC(=O)[C@H](Cc2c[nH]c3ccccc23)NC(=O)[C@H](CCC(N)=O)NC(=O)[C@@H]2CCN2C(=O)[C@H]2CCCN2C(=O)[C@H](Cc2ccc(O)cc2)NC1=O [Example 6] (cyclo(QWKY[dP][Aze])) | 134 ± 61 nM | 
6 | CC(C)[C@H]1NC(=O)[C@H](Cc2c[nH]c3ccccc23)NC(=O)[C@@H]2Cc3ccccc3CN2C(=O)[C@H]2CCCN2C(=O)[C@H](CCCCN)NC(=O)[C@H](Cc2c[nH]c3ccccc23)NC1=O [Example 18] (cyclo(W[dV]WK[dP][Tic])) |  | IC50 (human CCR10): 0.29 µM
7 | NCCCC[C@@H]1NC(=O)[C@H](Cc2c[nH]c3ccccc23)NC(=O)[C@H](CCC(N)=O)NC(=O)[C@@H]2Cc3ccccc3CN2C(=O)[C@H]2CCCN2C(=O)[C@H](Cc2ccc(O)cc2)NC1=O [Example 3] (cyclo(QWKY[dP][Tic])) | 82 ± 13 nM | 
8 | CC[C@H](C)[C@@H]1NC(=O)Cc2c(OC)ccc3c2Oc2c(ccc(OC)c2CNC(=O)[C@H](Cc2ccc(O)cc2)NC(=O)[C@H](CCCCN)NC(=O)[C@H](Cc2c[nH]c4ccccc24)NC1=O)C3(C)C [Example 11] | 192 ± 14 nM | 
9 | CC(C)[C@H]1NC(=O)[C@H](Cc2c[nH]c3ccccc23)NC(=O)[C@@H]2Cc3ccccc3CN2C(=O)[C@H]2CCCN2C(=O)[C@H](CCCN)NC(=O)[C@H](Cc2c[nH]c3ccccc23)NC1=O [Example 17] (cyclo(W[dV]W[Orn][dP][Tic])) |  | IC50 (human CCR10): 0.31 µM
10 | COc1ccc2c3c1CNC(=O)[C@H](Cc1ccc(O)cc1)NC(=O)[C@H](CCCCN)NC(=O)[C@H](Cc1c[nH]c4ccccc14)NC(=O)[C@H](Cc1ccccc1)NC(=O)Cc1c(OC)ccc(c1O3)C2(C)C [Example 8] | 18 ± 3 nM | 
11 | NCCCC[C@@H]1NC(=O)[C@H](Cc2c[nH]c3ccccc23)NC(=O)[C@H](Cc2ccccc2)NC(=O)[C@@H]2Cc3ccccc3CN2C(=O)[C@H]2CCCN2C(=O)[C@H](Cc2ccc(O)cc2)NC1=O [Example 1] (cyclo(FWKY[dP][Tic])) | 54 ± 12 nM | 
12 | COc1ccc2c3c1CNC(=O)[C@H](Cc1ccc(O)cc1)NC(=O)[C@H](CCCCN)NC(=O)[C@H](Cc1c[nH]c4ccccc14)NC(=O)[C@H]([C@@H](C)O)NC(=O)Cc1c(OC)ccc(c1O3)C2(C)C [Example 9] | 160 ± 81 nM | 
13 | CC[C@H](C)[C@@H]1NC(=O)C[C@@H]2NC(=O)[C@@H]3C[C@@H](CN3C2=O)NC(=O)[C@H](Cc2ccc(O)cc2)NC(=O)[C@H](CCCCN)NC(=O)[C@H](Cc2c[nH]c3ccccc23)NC1=O [Example 14] | 189 ± 13 nM | 
14 | NCCCC[C@@H]1NC(=O)[C@H](Cc2c[nH]c3ccccc23)NC(=O)[C@H](Cc2ccccc2)NC(=O)[C@@H]2CCN2C(=O)[C@H]2CCCN2C(=O)[C@H](Cc2ccc(O)cc2)NC1=O [Example 4] (cyclo(FWKY[dP][Aze])) | 20 ± 5 nM | 
15 | COc1ccc2c3c1CNC(=O)[C@H](Cc1c[nH]cn1)NC(=O)[C@H](Cc1ccc(O)cc1)NC(=O)[C@H](CCCCN)NC(=O)[C@H](Cc1c[nH]c4ccccc14)NC(=O)Cc1c(OC)ccc(c1O3)C2(C)C [Example 12] | 218 nM | 
16 | C[C@@H](O)[C@@H]1NC(=O)[C@@H]2CCN2C(=O)[C@H]2CCCN2C(=O)[C@H](Cc2ccc(O)cc2)NC(=O)[C@H](CCCCN)NC(=O)[C@H](Cc2c[nH]c3ccccc23)NC1=O [Example 7] (cyclo(TWKY[dP][Aze])) | 286 ± 66 nM | 
17 | CC[C@H](C)[C@@H]1NC(=O)[C@@H]2Cc3ccccc3CN2C(=O)[C@H]2CCCN2C(=O)[C@H](Cc2ccc(O)cc2)NC(=O)[C@H](CCCCN)NC(=O)[C@H](Cc2c[nH]c3ccccc23)NC1=O [Example 2] (cyclo(IWKY[dP][Tic])) | 68 ± 32 nM | 
